Measured values as given in patent publication US11725037B2, “Peptide dual agonists of GIPR and GLP2R” (University of Copenhagen, priority 2017, dated 2023).
pEC50: −log10 of the molar value. Ends that are not written are not given here.

Columns and labels:
[1] = molecular target: T1, human GLP-2 receptor (Homo sapiens, UniProt O95838); assay: cAMP accumulation assay (HitHunter cAMP XS) in transiently transfected COS-7 cells expressing the human GLP-2 receptor; format: cell-based; conditions: for Emax at 10 µM: COS-7, read-out: Emax (10 μM), GLP-2 receptor; for fold (fold change of native GLP-2), GLP-2 receptor: EC50 relative to native GLP-2; for pEC50: logEC50, GLP-2 receptor
T1 construct: host or cells: COS-7 (transient, calcium phosphate; pCMV-Script vector)
T1 sequence (O95838 1-553): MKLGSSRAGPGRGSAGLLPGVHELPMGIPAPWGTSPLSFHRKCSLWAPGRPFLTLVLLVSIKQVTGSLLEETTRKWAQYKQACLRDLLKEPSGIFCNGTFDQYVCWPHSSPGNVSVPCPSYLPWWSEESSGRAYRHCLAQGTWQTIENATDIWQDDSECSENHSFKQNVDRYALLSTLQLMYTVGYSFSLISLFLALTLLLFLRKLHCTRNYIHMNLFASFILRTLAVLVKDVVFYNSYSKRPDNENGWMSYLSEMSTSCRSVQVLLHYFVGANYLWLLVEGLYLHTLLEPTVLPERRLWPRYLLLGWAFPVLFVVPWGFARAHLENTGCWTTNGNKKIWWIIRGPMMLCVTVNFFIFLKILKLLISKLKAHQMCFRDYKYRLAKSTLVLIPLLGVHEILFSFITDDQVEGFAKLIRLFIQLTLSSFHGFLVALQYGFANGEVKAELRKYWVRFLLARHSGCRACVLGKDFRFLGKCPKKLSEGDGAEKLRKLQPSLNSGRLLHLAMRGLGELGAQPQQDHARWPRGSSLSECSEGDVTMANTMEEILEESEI
Method: (§1) The day after, the cells were washed twice with Hepes buffered saline (HBS) buffer and incubated with HBS and 1 mM 3-isobutyl-1-methylxanthine (IBMX) for 30 min at 37° C. Ligands were added and incubated for 30 min at 37° C. The HitHunter™ cAMP XS assay (DiscoveRx) was carried out according to the manufacturer's instructions.

[2] = molecular target: T2, human GIP receptor (Homo sapiens, UniProt P48546); assay: cAMP accumulation assay (HitHunter cAMP XS) in transiently transfected COS-7 cells expressing the human GIP receptor; format: cell-based; conditions: for Emax at 10 µM: COS-7, read-out: Emax (10 μM), GIP receptor; for fold (fold change of native GIP), GIP receptor: EC50 relative to native GIP; for pEC50: logEC50, GIP receptor, log value, cAMP, COS-7
T2 construct: host or cells: COS-7 (transient, calcium phosphate; pCMV-Script vector)
T2 sequence (P48546 22-466): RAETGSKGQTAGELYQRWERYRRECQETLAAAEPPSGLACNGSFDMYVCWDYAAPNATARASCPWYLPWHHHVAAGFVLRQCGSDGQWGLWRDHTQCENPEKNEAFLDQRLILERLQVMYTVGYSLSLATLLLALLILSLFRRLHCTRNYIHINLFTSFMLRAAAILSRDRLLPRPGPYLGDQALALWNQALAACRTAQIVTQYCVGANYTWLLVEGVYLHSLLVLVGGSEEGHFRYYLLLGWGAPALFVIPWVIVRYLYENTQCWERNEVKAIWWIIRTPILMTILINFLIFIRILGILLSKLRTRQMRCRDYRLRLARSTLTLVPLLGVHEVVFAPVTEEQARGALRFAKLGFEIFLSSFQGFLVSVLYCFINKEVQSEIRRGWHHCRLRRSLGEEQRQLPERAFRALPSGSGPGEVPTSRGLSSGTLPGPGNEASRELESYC
Method: as §1

| Molecule | Emax at 10 µM [1] [%] | fold (fold change of native GLP-2), GLP-2 receptor ([1]; Table 2) [fold] | pEC50 ([1]; Table 2, cAMP, COS-7) | Emax at 10 µM [2] [%] | fold (fold change of native GIP), GIP receptor ([2]; Table 2) [fold] | EC50 ([1]; EC50(nM), GLP-2 receptor, Table 2, cAMP, COS-7) [nM] | pEC50 ([2]; Table 2) | fold (fold change of native GLP-2), GLP-2 receptor ([1]; Table 1) [fold] | pEC50 ([1]; Table 1, cAMP, COS-7) | fold (fold change of native GIP), GIP receptor ([2]; Table 1) [fold] | pEC50 ([2]; Table 1) |
| --- | --- | --- | --- | --- | --- | --- | --- | --- | --- | --- | --- |
| CCCCCCCCCCCCCCCC(=O)NCCCC[C@H](NC(=O)[C@@H](NC(=O)[C@H](CCC(N)=O)NC(=O)[C@@H](NC(=O)[C@H](CC(C)C)NC(=O)[C@H](Cc1c[nH]c2ccccc12)NC(=O)[C@H](CC(N)=O)NC(=O)[C@@H](NC(=O)[C@H](Cc1ccccc1)NC(=O)[C@H](CC(=O)O)NC(=O)[C@H](CCCNC(=N)N)NC(=O)[C@H](C)NC(=O)[C@H](C)NC(=O)[C@H](CC(C)C)NC(=O)[C@H](CC(N)=O)NC(=O)[C@H](CC(=O)O)NC(=O)[C@H](CC(C)C)NC(=O)[C@@H](NC(=O)[C@@H](NC(=O)[C@H](CO)NC(=O)[C@H](Cc1ccc(O)cc1)NC(=O)[C@H](CC(=O)O)NC(=O)[C@H](CO)NC(=O)[C@@H](NC(=O)[C@H](Cc1ccccc1)NC(=O)[C@@H](NC(=O)CNC(=O)[C@H](CC(=O)O)NC(=O)[C@H](C)NC(=O)[C@@H](N)Cc1c[nH]cn1)[C@@H](C)O)[C@@H](C)CC)[C@@H](C)O)[C@@H](C)CC)[C@@H](C)CC)[C@@H](C)CC)[C@@H](C)O)C(=O)N[C@H](C(=O)N[C@H](C(=O)N[C@@H](CCCCN)C(=O)O)[C@@H](C)O)[C@@H](C)CC [Co-agonist 31] | 91 | 89 | – | 91 | 19 | – | – | – | – | – | – |
| CCCCCCCCCCCCCCCC(=O)NCCCC[C@H](NC(=O)CNC(=O)[C@H](CCCCN)NC(=O)[C@@H](NC(=O)[C@H](CCC(N)=O)NC(=O)[C@@H](NC(=O)[C@H](CC(C)C)NC(=O)[C@H](Cc1c[nH]c2ccccc12)NC(=O)[C@H](CC(N)=O)NC(=O)[C@@H](NC(=O)[C@H](Cc1ccccc1)NC(=O)[C@H](CC(=O)O)NC(=O)[C@H](CCCNC(=N)N)NC(=O)[C@H](C)NC(=O)[C@H](C)NC(=O)[C@H](CC(C)C)NC(=O)[C@H](CC(N)=O)NC(=O)[C@H](CC(=O)O)NC(=O)[C@H](CC(C)C)NC(=O)[C@@H](NC(=O)[C@@H](NC(=O)[C@H](CO)NC(=O)[C@H](Cc1ccc(O)cc1)NC(=O)[C@H](CC(=O)O)NC(=O)[C@H](CO)NC(=O)[C@@H](NC(=O)[C@H](Cc1ccccc1)NC(=O)[C@@H](NC(=O)CNC(=O)[C@H](CC(=O)O)NC(=O)[C@H](C)NC(=O)[C@@H](N)Cc1c[nH]cn1)[C@@H](C)O)[C@@H](C)CC)[C@@H](C)O)[C@@H](C)CC)[C@@H](C)CC)[C@@H](C)CC)[C@@H](C)O)C(=O)N[C@@H](CCCCN)C(=O)O [Co-agonist 36] | 71 | 17 | 7.70 | 100 | 8.9 | – | – | – | – | – | – |
| HADGTFIDDYSTILDNLAARDFINWLIQTKITD [Co-agonist 14] | 90 | – | – | 94 | – | – | – | 9.2 | 7.97 | 27 | 8.63 |

More lines, now with the values ahead:

| Emax at 10 µM [1] [%] | fold (fold change of native GLP-2), GLP-2 receptor ([1]; Table 2) [fold] | pEC50 ([1]; Table 2, cAMP, COS-7) | Emax at 10 µM [2] [%] | fold (fold change of native GIP), GIP receptor ([2]; Table 2) [fold] | EC50 ([1]; EC50(nM), GLP-2 receptor, Table 2, cAMP, COS-7) [nM] | pEC50 ([2]; Table 2) | fold (fold change of native GLP-2), GLP-2 receptor ([1]; Table 1) [fold] | pEC50 ([1]; Table 1, cAMP, COS-7) | fold (fold change of native GIP), GIP receptor ([2]; Table 1) [fold] | pEC50 ([2]; Table 1) | Molecule |
| --- | --- | --- | --- | --- | --- | --- | --- | --- | --- | --- | --- |
| 73 | 30 | 7.44 | 100 | 7.1 | – | – | – | – | – | – | CCCCCCCCCCCC(=O)NCCCC[C@H](NC(=O)[C@@H](NC(=O)[C@H](CCC(N)=O)NC(=O)[C@@H](NC(=O)[C@H](CC(C)C)NC(=O)[C@H](Cc1c[nH]c2ccccc12)NC(=O)[C@H](CC(N)=O)NC(=O)[C@@H](NC(=O)[C@H](Cc1ccccc1)NC(=O)[C@H](CC(=O)O)NC(=O)[C@H](CCCNC(=N)N)NC(=O)[C@H](C)NC(=O)[C@H](C)NC(=O)[C@H](CC(C)C)NC(=O)[C@H](CC(N)=O)NC(=O)[C@H](CC(=O)O)NC(=O)[C@H](CC(C)C)NC(=O)[C@@H](NC(=O)[C@@H](NC(=O)[C@H](CO)NC(=O)[C@H](Cc1ccc(O)cc1)NC(=O)[C@H](CC(=O)O)NC(=O)[C@H](CO)NC(=O)[C@@H](NC(=O)[C@H](Cc1ccccc1)NC(=O)[C@@H](NC(=O)CNC(=O)[C@H](CC(=O)O)NC(=O)[C@H](C)NC(=O)[C@@H](N)Cc1c[nH]cn1)[C@@H](C)O)[C@@H](C)CC)[C@@H](C)O)[C@@H](C)CC)[C@@H](C)CC)[C@@H](C)CC)[C@@H](C)O)C(=O)N[C@H](C(=O)N[C@H](C(=O)N[C@@H](CCCCN)C(=O)O)[C@@H](C)O)[C@@H](C)CC [Co-agonist 30] |
| 91 | 5.1 | – | 100 | 1.7 | 6.2 | 9.81 | – | – | – | – | CCCCCCCCCCCC(=O)NCCCC[C@H](NC(=O)[C@@H](NC(=O)[C@@H](NC(=O)[C@H](CCCCN)NC(=O)[C@@H](NC(=O)[C@H](CCC(N)=O)NC(=O)[C@@H](NC(=O)[C@H](CC(C)C)NC(=O)[C@H](Cc1c[nH]c2ccccc12)NC(=O)[C@H](CC(N)=O)NC(=O)[C@@H](NC(=O)[C@H](Cc1ccccc1)NC(=O)[C@H](CC(=O)O)NC(=O)[C@H](CCCNC(=N)N)NC(=O)[C@H](C)NC(=O)[C@H](C)NC(=O)[C@H](CC(C)C)NC(=O)[C@H](CC(N)=O)NC(=O)[C@H](CC(=O)O)NC(=O)[C@H](CC(C)C)NC(=O)[C@@H](NC(=O)[C@@H](NC(=O)[C@H](CO)NC(=O)[C@H](Cc1ccc(O)cc1)NC(=O)[C@H](CC(=O)O)NC(=O)[C@H](CO)NC(=O)[C@@H](NC(=O)[C@H](Cc1ccccc1)NC(=O)[C@@H](NC(=O)CNC(=O)[C@H](CC(=O)O)NC(=O)[C@H](C)NC(=O)[C@@H](N)Cc1c[nH]cn1)[C@@H](C)O)[C@@H](C)CC)[C@@H](C)O)[C@@H](C)CC)[C@@H](C)CC)[C@@H](C)CC)[C@@H](C)O)[C@@H](C)CC)[C@@H](C)O)C(=O)O [Co-agonist 32] |
| 82 | 11 | 7.89 | 100 | 3.6 | – | 9.50 | – | – | – | – | CCCCCCCCCCCCCCCC(=O)NCCCC[C@H](NC(=O)[C@@H](NC(=O)[C@@H](NC(=O)[C@H](CCCCN)NC(=O)[C@@H](NC(=O)[C@H](CCC(N)=O)NC(=O)[C@@H](NC(=O)[C@H](CC(C)C)NC(=O)[C@H](Cc1c[nH]c2ccccc12)NC(=O)[C@H](CC(N)=O)NC(=O)[C@@H](NC(=O)[C@H](Cc1ccccc1)NC(=O)[C@H](CC(=O)O)NC(=O)[C@H](CCCNC(=N)N)NC(=O)[C@H](C)NC(=O)[C@H](C)NC(=O)[C@H](CC(C)C)NC(=O)[C@H](CC(N)=O)NC(=O)[C@H](CC(=O)O)NC(=O)[C@H](CC(C)C)NC(=O)[C@@H](NC(=O)[C@@H](NC(=O)[C@H](CO)NC(=O)[C@H](Cc1ccc(O)cc1)NC(=O)[C@H](CC(=O)O)NC(=O)[C@H](CO)NC(=O)[C@@H](NC(=O)[C@H](Cc1ccccc1)NC(=O)[C@@H](NC(=O)CNC(=O)[C@H](CC(=O)O)NC(=O)[C@H](C)NC(=O)[C@@H](N)Cc1c[nH]cn1)[C@@H](C)O)[C@@H](C)CC)[C@@H](C)O)[C@@H](C)CC)[C@@H](C)CC)[C@@H](C)CC)[C@@H](C)O)[C@@H](C)CC)[C@@H](C)O)C(=O)O [Co-agonist 33] |
| 68 | 1.9 | 8.63 | 99 | 5.4 | – | – | – | – | – | – | CCCCCCCCCCCC(=O)NCCCC[C@H](NC(=O)CNC(=O)[C@H](CCCCN)NC(=O)[C@@H](NC(=O)[C@H](CCC(N)=O)NC(=O)[C@@H](NC(=O)[C@H](CC(C)C)NC(=O)[C@H](Cc1c[nH]c2ccccc12)NC(=O)[C@H](CC(N)=O)NC(=O)[C@@H](NC(=O)[C@H](Cc1ccccc1)NC(=O)[C@H](CC(=O)O)NC(=O)[C@H](CCCNC(=N)N)NC(=O)[C@H](C)NC(=O)[C@H](C)NC(=O)[C@H](CC(C)C)NC(=O)[C@H](CC(N)=O)NC(=O)[C@H](CC(=O)O)NC(=O)[C@H](CC(C)C)NC(=O)[C@@H](NC(=O)[C@@H](NC(=O)[C@H](CO)NC(=O)[C@H](Cc1ccc(O)cc1)NC(=O)[C@H](CC(=O)O)NC(=O)[C@H](CO)NC(=O)[C@@H](NC(=O)[C@H](Cc1ccccc1)NC(=O)[C@@H](NC(=O)CNC(=O)[C@H](CC(=O)O)NC(=O)[C@H](C)NC(=O)[C@@H](N)Cc1c[nH]cn1)[C@@H](C)O)[C@@H](C)CC)[C@@H](C)O)[C@@H](C)CC)[C@@H](C)CC)[C@@H](C)CC)[C@@H](C)O)C(=O)N[C@@H](CCCCN)C(=O)O [Co-agonist 35] |
